# Measurements: publication PMC5792431 (Scientific Reports, 2018)
# Where two headings read alike, the source gives them in different places.
# Tests used:
# [1] = physchem; conditions: 37 °C, pH 7.4, aqueous buffer, thermodynamic from solid
# [2] = in vitro; conditions: human, Caco-2, pH 7.4
# [3] = in vitro; conditions: human, hepatocytes
# [4] = system: rRVFVΔNSs::Katushka; assay: microbe, parasite or virus in culture; format: cell-based, Rift Valley fever virus; conditions: for EC50: read-out: EC50, inhibition of fluorescent cell foci
# [5] = in vitro; conditions: human, microsomes, pH 7.4
# [6] = human
# [7] = in vitro; conditions: both, human, plasma, pH 7.4
# [8] = human, microsomes, pH 7.4
# [9] = physchem; conditions: pH 7.4
# [10] = mouse, microsomes, pH 7.4
# [11] = in vivo; conditions: female, BALB/C, mouse
# [12] = female, BALB/C, mouse, in vivo
# [13] = system: rRVFVΔNSs::Katushka; assay: microbe, parasite or virus in culture; format: cell-based, Rift Valley fever virus
# [14] = mouse, in vivo
# [15] = system: A549 cells; conditions: cited from earlier work
# [16] = system: rRVFVΔNSs::Katushka; format: cell-based, Rift Valley fever virus
# [17] = in vitro; conditions: mouse, microsomes, pH 7.4
# [18] = in vitro; conditions: mouse, plasma, pH 7.4
# [19] = physchem; conditions: plasma or biological fluid
# [20] = system: rRVFVΔNSs::Katushka; assay: microbe, parasite or virus in culture; format: cell-based; conditions: Rift Valley fever virus, A549, 16 h, read-out: EC50, inhibition of RVFV RNA expression (qPCR)
# [21] = system: RVFV virions; format: cell-based, Rift Valley fever virus
# [22] = Rift Valley fever virus, A549, 16 h
compound,measurement,setting,value
"O=C(Nc1ccccc1C(=O)Nc1ccccc1C(=O)O)c1ccccc1 [Benzavir-1, 2-{[2-(benzoylamino)benzoyl]amino}-benzoic acid]",solubility,[1],930 ± 110 µM
same,Papp A→B,[2],32 ± 3 ×10⁻⁶ cm/s
same,Papp B→A,[2],31 ± 2 ×10⁻⁶ cm/s
same,efflux ratio,[2],1
same,hepatocyte CLint,[3],3.1 ± 0.1 µL/min/1e6 cells
same,EC50,[4]; [22],10.1 µM
same,microsomal CLint,[5],3.9 ± 0.8 µL/min/mg
same,"CLH, u (HHep)",[6],2.3 L/h
same,fraction unbound,[7],0.0003
same,"CLH, u (HLM)",[8],1.0 L/h
same,logD,[9],1.52 ± 0.02
"O=C(Nc1cc(F)c(F)cc1C(=O)Nc1ccccc1C(=O)O)c1ccccc1F [Benzavir-2, 2-(4,5-difluoro-2-(2-fluorobenzamido)benzamido)benzoic acid]",solubility,[1],130 ± 10 µM
same,Papp A→B,[2],55 ± 4 ×10⁻⁶ cm/s
same,Papp B→A,[2],45 ± 3 ×10⁻⁶ cm/s
same,efflux ratio,[2],0.8
same,"CLH, u (MLM)",[10],0.15 L/h
same,hepatocyte CLint,[3],4.1 ± 0.4 µL/min/1e6 cells
same,Cmax,"[11]; ip, 2 mg/kg",2.3 µM
same,Tmax,"[11]; ip, 2 mg/kg",15 min
same,half-life,"[11]; ip, 2 mg/kg",84 ± 12 min
same,Cmax,"[11]; ip, 10 mg/kg",28 µM
same,Tmax,"[11]; ip, 10 mg/kg",15 min
same,half-life,"[11]; ip, 10 mg/kg",96 ± 12 min
same,Cmax,"[11]; iv, 1 mg/kg",7.8 µM
same,Vd,"[11]; iv, 1 mg/kg",29 ± 7 L/kg
same,clearance,"[11]; iv, 1 mg/kg",9.33 mL/min
same,half-life,"[11]; iv, 1 mg/kg",42 ± 12 min
same,Cmax,"[11]; iv, 2 mg/kg",7.8 µM
same,Vd,"[11]; iv, 2 mg/kg",20 ± 2 L/kg
same,clearance,"[11]; iv, 2 mg/kg",6.17 mL/min
same,half-life,"[11]; iv, 2 mg/kg",42 ± 6 min
same,Cmax,"[11]; iv, 4 mg/kg",20 µM
same,Vd,"[11]; iv, 4 mg/kg",35 ± 7 L/kg
same,clearance,"[11]; iv, 4 mg/kg",11.3 mL/min
same,half-life,"[11]; iv, 4 mg/kg",42 ± 6 min
same,Cmax,"[11]; po, 2 mg/kg",0.4 µM
same,Tmax,"[11]; po, 2 mg/kg",30 min
same,half-life,"[11]; po, 2 mg/kg",180 ± 36 min
same,Cmax,"[11]; po, 10 mg/kg",13 µM
same,Tmax,"[11]; po, 10 mg/kg",30 min
same,half-life,"[11]; po, 10 mg/kg",180 ± 60 min
same,Fapp,"[12]; ip, 2 mg/kg",43 ± 15%
same,Fapp,"[12]; ip, 10 mg/kg",120 ± 40%
same,iv CL relative to unbound in vitro metabolic CL,[12]; iv,2–4 times higher
same,Fapp,"[12]; po, 2 mg/kg",14 ± 5%
same,Fapp,"[12]; po, 10 mg/kg",54 ± 18%
same,inhibition of release of viable progeny particles to the supernatant,[13]; 1.25 μM,> 95%
same,EC50,"[13]; Rift Valley fever virus, A549, 16 h, read-out: EC50, inhibition of production of progeny infectious virus",0.6 µM
same,weight loss or negative behavioural signs,[14],No weight loss or negative behavioural signs were observed
same,CC50,[15],not achieved within these concentrations
same,EC50,[4]; [22],0.6 µM
same,microsomal CLint,[5],3.8 ± 0.4 µL/min/mg
same,"CLH, u (HHep)",[6],4.0 L/h
same,inhibitory effect by time of addition,[16],the inhibitory effect on the formation of the fluorescent cell foci was the greatest
same,microsomal CLint,[17],3.8 ± 0.9 µL/min/mg
same,fraction unbound,[7],0.0004 ± 0.0002
same,fraction unbound,[18],0.0076 ± 0.0002
same,solubility,[19],> 150 µM
same,EC50,[20],1.7 µM
same,"CLH, u (HLM)",[8],1.4 L/h
same,logD,[9],1.56 ± 0.01
same,inhibition of binding or uptake of RVFV virions,[21],No inhibition of binding or uptake of RVFV virions
O=C(O)c1ccccc1NC(=O)c1ccccc1NC(=O)C1CCCCC1 [17e],"EC50, inhibition of fluorescent cell foci",[4],out of range
CC(C)(C)C(=O)Nc1ccccc1C(=O)Nc1ccccc1C(=O)O [17d],"EC50, inhibition of fluorescent cell foci",[4],out of range
O=C(Nc1cc(Cl)ccc1C(=O)Nc1ccccc1C(=O)O)c1ccccc1F [35f],EC50,[4]; [22],4.5 µM
same,EC50,[4],4.6 µM
